Values quoted from earlier work as cited in patent US20030092774A1, “Methods for treating neoplastic, angiogenic, vascular, fibroblastic, and/or immunosuppressive iregularities of the eye and/or joint via administration of combretastatin based medicaments, and iontophoretic devices for delivering combretastatin based medicaments” (priority 2001, published 2003).

COc1ccc(/C=C\c2cc(OC)c(OC)c(OC)c2)cc1O [combretastatin-A4, (cis)-1-(3′,4′,5′,-trimethoxyphenyl)-2-(3 ″-hydroxy-4″-methoxyphenyl)ethene]
solubility in aqueous solution: practically insoluble
